Measured values from PubChem BioAssay (NCI).
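1) Cells in 96-well plates. 2) Compound, 48 h, 5 concentrations. 3) Linear interpolation between surrounding doses. 4) Unreached endpoint = highest concentration. Here, GI50 denotes the concentration required for 50% inhibition of growth. TGI denotes the concentration required for complete inhibition of growth.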

Assays:
Test in all cases: NCI-60 cell line screen, 48 h
NCI-H460 lung = system: NCI-H460 lung
LOX IMVI melanoma = system: LOX IMVI melanoma
SK-MEL-5 melanoma = system: SK-MEL-5 melanoma
M14 melanoma = system: M14 melanoma
UACC-62 melanoma = system: UACC-62 melanoma
ACHN renal = system: ACHN renal
K-562 leukemia = system: K-562 leukemia
HOP-92 NSCLC = system: HOP-92 NSCLC
MCF7 breast = system: MCF7 breast
SR leukemia = system: SR leukemia

| SMILES | TGI (NCI-H460 lung) [µM] | TGI (LOX IMVI melanoma) [µM] | TGI (SK-MEL-5 melanoma) [µM] | TGI (M14 melanoma) [µM] | TGI (UACC-62 melanoma) [µM] | TGI (ACHN renal) [µM] | TGI (K-562 leukemia) [µM] | TGI (HOP-92 NSCLC) [µM] | TGI (MCF7 breast) [µM] | TGI (SR leukemia) [µM] | GI50 (NCI-H460 lung) [µM] | GI50 (LOX IMVI melanoma) [µM] | GI50 (SR leukemia) [µM] | GI50 (SK-MEL-5 melanoma) [µM] | GI50 (M14 melanoma) [µM] | GI50 (UACC-62 melanoma) [µM] | GI50 (K-562 leukemia) [µM] | GI50 (HOP-92 NSCLC) [µM] | GI50 (MCF7 breast) [µM] |
| --- | --- | --- | --- | --- | --- | --- | --- | --- | --- | --- | --- | --- | --- | --- | --- | --- | --- | --- | --- |
| CNC(=S)N/N=C/C(C)=N/NC(=S)NC | > 100 | > 100 | > 100 | > 100 | > 100 | > 100 | – | – | – | – | – | – | – | – | – | – | – | – | – |
| CCN(CC)c1c(C(C)(C)C)c(=O)n2ccsc2c1OC(C)=O | 31.3 | 31.4 | 32.2 | 31.2 | 34.5 | 29.7 | > 100 | 31.2 | 28.9 | – | – | – | – | – | – | – | – | – | – |
| O/N=C\c1c2c(cc3c1CCC3)CCC2 | > 100 | > 100 | > 100 | > 100 | > 100 | > 100 | > 100 | – | > 100 | > 100 | – | – | – | – | – | – | – | – | – |
| Cc1c2cc[n+](Cc3ccc(I)cc3)cc2c(C)c2c1[nH]c1ccccc12 | 1.93 | > 25 | 1.33 | – | 16.6 | – | 10.7 | 3.3 | 3.06 | – | – | – | – | – | – | – | – | – | – |
| S=c1ncc(-c2cncc(-c3cnc(=S)[nH]c3)n2)c[nH]1 | > 100 | – | > 100 | > 100 | > 100 | > 100 | > 100 | > 100 | > 100 | > 100 | – | – | – | – | – | – | – | – | – |
| C/C(=C\C(=O)Nc1ccc2n[nH]nc2c1)Nc1ccc2n[nH]nc2c1 | > 100 | > 100 | > 100 | > 100 | > 100 | > 100 | > 100 | > 100 | – | > 100 | – | – | – | – | – | – | – | – | – |
| O=CN1CCN(c2ccc3ccc(=O)[nH]c3n2)CC1 | > 100 | > 100 | – | > 100 | > 100 | > 100 | > 100 | > 100 | > 100 | > 100 | – | – | – | – | – | – | – | – | – |
| CCOC(=O)c1ccc(N(CCOS(C)(=O)=O)CCOS(C)(=O)=O)cc1 | > 100 | > 100 | > 100 | > 100 | 77.6 | 63.7 | > 100 | > 100 | > 100 | – | – | – | – | – | – | – | – | – | – |
| CSc1c(C(C)=O)c(O)n(-c2ccc(C)cc2)c(=O)c1C#N | > 100 | > 100 | > 100 | > 100 | > 100 | – | > 100 | – | > 100 | > 100 | – | – | – | – | – | – | – | – | – |
| CCOC(=O)N1c2ccccc2C(C)=CC(C)C1C (stereo not given) | > 100 | 63.7 | 39.6 | 80 | > 100 | > 100 | > 100 | – | > 100 | 55.1 | – | – | – | – | – | – | – | – | – |
| Nc1nc(SCc2ccccc2Cl)c2ncn(C3OC(CO)C(O)C3O)c2n1 (stereo not given) | > 100 | > 100 | > 100 | > 100 | > 100 | > 100 | > 100 | > 100 | – | > 100 | – | – | – | – | – | – | – | – | – |
| N#C[S-].[La+3].c1ccc(-c2ccccn2)nc1.c1ccc(-c2ccccn2)nc1.c1ccc(-c2ccccn2)nc1 | 88.2 | 68.3 | 34.8 | 27.9 | 50.3 | – | – | – | – | > 100 | 22.5 | 7.3 | 34.2 | 10.4 | 12.1 | 19.5 | – | – | – |
| Cc1ccc(/C=c2\cc3oc(=O)c4cccc(c4-3)c2=O)cc1 | > 100 | > 100 | – | > 100 | > 100 | > 100 | > 100 | > 100 | > 100 | > 100 | – | – | – | – | – | – | – | – | – |
| CSc1cc(Cl)c(C)cc1S(=O)(=O)NC(=O)NNc1ccc(C)cc1 | > 100 | > 100 | > 100 | > 100 | – | > 100 | > 100 | – | > 100 | > 100 | – | – | – | – | – | – | – | – | – |
| C[N+]1(C)CCCC(C#N)(c2ccccc2)CC1 (stereo not given) | > 100 | – | > 100 | > 100 | – | > 100 | > 100 | > 100 | > 100 | > 100 | – | – | – | – | – | – | – | – | – |
| [CH3][Sn]([CH3])([CH3])[S]C(=S)N1CCOCC1 | 4.38 | 6.75 | 2.62 | – | – | – | 5.84 | 6.48 | 0.619 | – | 1.05 | 1.39 | – | 0.881 | – | 0.553 | 0.36 | 1.84 | 0.0342 |
| CCOC(=O)C(C)c1nc2cc(F)c(F)cc2[nH]c1=O (stereo not given) | > 100 | > 100 | > 100 | > 100 | > 100 | > 100 | > 100 | > 100 | > 100 | – | – | – | – | – | – | – | – | – | – |
| COc1ccc(-c2nc3ccccc3c(=O)[nH]2)cc1 | – | > 100 | > 100 | > 100 | > 100 | – | > 100 | > 100 | > 100 | > 100 | – | – | – | – | – | – | – | – | – |
| NC(Cc1ccccc1)C(=O)OCN1C(=O)C2C3C=CC(C2C1=O)C1C(=O)N(COC(=O)C(N)Cc2ccccc2)C(=O)C31 (stereo not given) | > 100 | 42.2 | > 100 | > 100 | > 100 | > 100 | 74.6 | – | 39.2 | 53.4 | – | – | – | – | – | – | – | – | – |
| Nc1nc(Cl)c(CO)c(NCC2(CO)CCC2)n1 | > 100 | > 100 | > 100 | – | – | > 100 | > 100 | > 100 | > 100 | > 100 | – | – | – | – | – | – | – | – | – |
| CC(=O)c1csc2c1C(=O)c1ccccc1C2=O | 5 | 31.3 | 0.376 | 2.65 | 3.73 | 4.57 | > 100 | 89.1 | 5.22 | – | – | – | – | – | – | – | – | – | – |
| COC(=O)[C@@H]1c2c(oc3cc(CO)cc(O)c3c2=O)C=C[C@H]1O | 34 | 12.4 | 28.5 | 19.8 | 25 | – | > 100 | 22.4 | 12 | > 100 | – | – | – | – | – | – | – | – | – |
